In the assay the test system is E. coli strains. Kind of assay: CLSI overnight reference method, broth microdilution MIC. The format is cell-based. The note with it: for MIC (CLSI Ref): unit assumed.
Where [1] appears, read: E. coli strain Clinical Sample 1.
Setting [2] is: E. coli strain Clinical Sample 2.
[3] abbreviates: E. coli strain Clinical Sample 4.
Where [4] appears, read: E. coli strain Clinical Sample 5.
[5] abbreviates: E. coli strain Clinical Sample 6.
Setting [6] is: E. coli strain Clinical Sample 7.
Where [7] appears, read: E. coli strain Clinical Sample 8.
Where [8] appears, read: E. coli strain Clinical Sample 9.
[9] abbreviates: E. coli strain Clinical Sample 10.
The mark [10] stands for this setting: E. coli strain Clinical Sample 11.
The mark [11] stands for this setting: E. coli strain Clinical Sample 12.
Setting [12] is: E. coli strain Clinical Sample 13.

Experimental findings from patent publication US12203124B2, “Methods for improved rapid antimicrobial susceptibility testing” (priority 2016, dated 2025) are described below.

Values after ≈ are worked out from the molar mass of the structure shown.

`CN(C)[C@@H]1C(=O)C(C(N)=O)=C(O)[C@@]2(O)C(=O)C3=C(O)c4c(O)cccc4[C@@](C)(O)[C@H]3C[C@@H]12` [TET, Tetracycline]: the MIC (CLSI Ref) by setting is: (E. coli strain BEI 4.097) 32 mg/L (≈ 72 µM); (E. coli strain CDC Carba36) 8 mg/L (≈ 18 µM); under setting [1], 4 mg/L (≈ 9 µM); under setting [2], more than 32 mg/L; under setting [3], 4 mg/L (≈ 9 µM); under setting [4], more than 32 mg/L. The MIC (CLSI Ref) by setting is: under setting [5], 2 mg/L (≈ 4.5 µM); under setting [6], 4 mg/L (≈ 9 µM); under setting [7], 8 mg/L (≈ 18 µM); under setting [8], 4 mg/L (≈ 9 µM); under setting [9], 4 mg/L (≈ 9 µM); under setting [10], 4 mg/L (≈ 9 µM). The MIC (CLSI Ref) came to 4 mg/L (≈ 9 µM) under setting [11] and 4 mg/L (≈ 9 µM) under setting [12]. For the same compound, under setting [2], the “Interpretation letter” value is given as “R”.

On to `NC[C@H]1O[C@H](O[C@H]2[C@H](O)[C@@H](O[C@H]3O[C@H](CO)[C@@H](O)[C@H](N)[C@H]3O)[C@H](N)C[C@@H]2N)[C@H](N)C[C@@H]1O` [TOB, Tobramycin], for which the MIC (CLSI Ref) by setting is: (E. coli strain BEI 4.097) 1 mg/L (≈ 2.14 µM); (E. coli strain CDC Carba36) 1 mg/L (≈ 2.14 µM); under setting [1], 2 mg/L (≈ 4.28 µM); under setting [2], 1 mg/L (≈ 2.14 µM); under setting [3], 1 mg/L (≈ 2.14 µM); under setting [4], 1 mg/L (≈ 2.14 µM). The MIC (CLSI Ref) reads like this: under setting [5], 1 mg/L (≈ 2.14 µM); under setting [6], 1 mg/L (≈ 2.14 µM); under setting [7], 2 mg/L (≈ 4.28 µM); under setting [8], 4 mg/L (≈ 8.56 µM); under setting [9], 16 mg/L (≈ 34.2 µM); under setting [10], 1 mg/L (≈ 2.14 µM). The MIC (CLSI Ref) turned out to be 1 mg/L (≈ 2.14 µM) under setting [11] and 1 mg/L (≈ 2.14 µM) under setting [12].

For Ampicillin/sulbactam [SAM], the MIC (CLSI Ref) runs as follows: (E. coli strain BEI 4.097) 8 mg/L; (E. coli strain CDC Carba36) more than 32 mg/L; under setting [1], 4 mg/L; under setting [2], 16 mg/L; under setting [3], 16 mg/L; under setting [4], 8 mg/L. The MIC (CLSI Ref) by setting is: under setting [5], 2 mg/L; under setting [6], 16 mg/L; under setting [7], 64 mg/L; under setting [8], 32 mg/L; under setting [9], 16 mg/L; under setting [10], 4 mg/L. The MIC (CLSI Ref) reads like this: under setting [11], 2 mg/L; under setting [12], more than 32 mg/L. For the same compound, under setting [2], the “Interpretation letter” value is reported as “I”.

For the compound Colistin [CST], the MIC (CLSI Ref) by setting is: (E. coli strain BEI 4.097) 0.12 mg/L; (E. coli strain CDC Carba36) 0.25 mg/L; under setting [1], 0.12 mg/L; under setting [2], 0.12 mg/L; under setting [3], 0.25 mg/L; under setting [4], 0.25 mg/L. For the same compound, the MIC (CLSI Ref) is 0.12 mg/L under setting [5]; 0.12 mg/L under setting [6]; 0.12 mg/L under setting [7]; 0.5 mg/L under setting [8]; 0.25 mg/L under setting [9]; 0.5 mg/L under setting [10]. The MIC (CLSI Ref) was 0.25 mg/L under setting [11] and 0.25 mg/L under setting [12].

Gentamycin: the MIC (CLSI Ref) by setting is: (E. coli strain BEI 4.097) 0.5 mg/L; (E. coli strain CDC Carba36) 2 mg/L; under setting [1], 0.5 mg/L; under setting [2], 4 mg/L; under setting [3], 0.5 mg/L; under setting [4], 2 mg/L. Moreover, the MIC (CLSI Ref) under setting [5] is 0.5 mg/L; the MIC (CLSI Ref) under setting [6] was 0.5 mg/L; the MIC (CLSI Ref) under setting [7] is 1 mg/L; the MIC (CLSI Ref) under setting [8] stood at 1 mg/L; the MIC (CLSI Ref) under setting [9] is more than 16 mg/L; the MIC (CLSI Ref) under setting [10] turned out to be 2 mg/L. Moreover, the MIC (CLSI Ref) reads like this: under setting [11], 1 mg/L; under setting [12], 1 mg/L.

In the case of Imipenem/Cilastatin [IPM], the MIC (CLSI Ref) by setting is: (E. coli strain BEI 4.097) less than 0.12 mg/L; (E. coli strain CDC Carba36) less than 0.12 mg/L; under setting [1], less than 0.12 mg/L; under setting [2], less than 0.12 mg/L; under setting [3], 0.25 mg/L; under setting [4], less than 0.12 mg/L. For the same compound, the MIC (CLSI Ref) was less than 0.12 mg/L under setting [5]; less than 0.12 mg/L under setting [6]; 0.5 mg/L under setting [7]; less than 0.12 mg/L under setting [8]; less than 0.12 mg/L under setting [9]; 0.25 mg/L under setting [10]. Moreover, the MIC (CLSI Ref) reads like this: under setting [11], less than 0.12 mg/L; under setting [12], less than 0.12 mg/L.

For Penicillin, the MIC (CLSI Ref) reads like this: (E. coli strain BEI 4.097) 16 mg/L; (E. coli strain CDC Carba36) more than 16 mg/L; under setting [1], more than 16 mg/L; under setting [2], more than 16 mg/L; under setting [3], more than 16 mg/L; under setting [4], more than 16 mg/L. For the same compound, the MIC (CLSI Ref) runs as follows: under setting [5], 16 mg/L; under setting [6], more than 16 mg/L; under setting [7], more than 16 mg/L; under setting [8], more than 16 mg/L; under setting [9], more than 16 mg/L; under setting [10], more than 16 mg/L. The MIC (CLSI Ref) reads like this: under setting [11], more than 16 mg/L; under setting [12], 16 mg/L.
